Like-named read-outs stand apart in the source and are kept apart here. No end group written: not given here.
Columns and labels:
[1] = target: T1, dengue NS2B-NS3pro (DENV2 serine protease, recombinant single chain NS2B (G4-T-G4) NS3pro) (Dengue virus type 2, UniProt P14340); assay: Dengue NS2B-NS3 protease (NS2B-NS3pro) assay; assay type: biochemical, Dengue virus serotype-2 (DENV2); details: 2 μM NS2B-NS3pro, 100 μM Boc-Gly-Arg-Arg-AMC, pH 8.5, 200 mM Tris-HCl, 30 min pre-incubation + 30 min with substrate, fluorescence ex 350/em 440 nm, triplicate, repeated twice, ± SD, read-out: IC50 (inhibitory concentration of 50% of enzyme activity)
T1 construct: 1394–1440 in DENV2 polyprotein; 1476–1660 in DENV2 polyprotein; made in house; host or cells: E. coli
Procedure: The NS2B-NS3pro assay was performed to examine whether the Ltc 1 peptide inhibits the DENV2 serine protease. Briefly, a single chain NS2B (G4-T-G4) NS3pro was produced as a recombinant protein in E. coli as previously described. The end point reaction mixture was performed in black 96-well plates, which contained 2 μM recombinant NS2B-NS3pro, 100 μM fluorogenic peptide substrate (Boc-Gly-Arg-Arg-AMC) and varying concentrations of the Ltc 1 peptide (0.1 to 40 μM) buffered at pH 8.5 with 200 mM Tris-HCl in a total volume of 200 μl. The reaction mixtures without peptide, substrate with the peptides, enzyme and different concentrations of the peptides were used as controls. […] Measurements were performed in triplicate using a Tecan Infinite M200 Pro fluorescence spectrophotometer (Tecan Group Ltd., Switzerland). […] The fluorescence values obtained with the no-inhibitor control (0.0 μM peptide) were set at 100%, and those in the presence of peptide were calculated as a percentage of the control using non-linear regression in GraphPad Prism (version 5.01) software. The IC50 was calculated from nonlinear regression fitting of the signal vs. concentration data points to the standard dose–response equation Y = Bottom + (Top - Bottom)/(1 + 10^^((X - LogIC50))). […] The inhibition percentage was calculated using the following formula: […]

Vero cells = assay: Cytotoxicity, Non-Radioactive Cell Proliferation assay; assay type: cell-based; details: Vero cells (method), 72 h
Procedure: The cytotoxicity of the Ltc 1 peptides was evaluated by determining the maximal non-toxic dose (MNTD) and the 50% cytotoxic concentration (CC50) of the cells using the Non-Radioactive Cell Proliferation assay (Promega, USA) according to the manufacturer’s instructions. […] Vero cells were seeded at 1×10^4 cells/well in triplicate under optimal conditions (37°C, 5% CO2 in a humidified incubator) in 96-well plates with blank controls (media only) and cell controls (cells only). After an overnight incubation, the cells were treated with increasing concentrations of Ltc 1 peptide (0, 4, 8, 16, 32, 64 and 120 μM) with DMEM medium supplemented with 2% FBS and the cell culture was analysed after 72 h. The percentage of cell viability was calculated as follows: […] (absorbance of treated cells/absorbance of untreated cells) × 100. The MNTD and CC50 values were calculated from the dose-response curves.

HepG2 cells = assay: Real Time Cell Proliferation Assay (RTCA, xCELLigence); assay type: cell-based, human
Procedure: This assay was performed to test the real time effects of the Ltc 1 peptide on cell viability. Cell proliferation was measured using the xCELLigence Real-Time Cellular Analysis (RTCA) system (Roche, Germany) as described previously. Cell viability and growth were monitored continuously after applying increasing concentrations of the Ltc 1 peptide (0, 12.5, 25, 50, 100, 150, 200, 250 μM). Briefly, the background measurements were recorded after adding 100 μl culture medium to the wells. Next, the cells were seeded at a density of 1 × 10^4 cell/well in a 16-well plate with electrodes for 18 h to allow the cells to grow to log phase. The cells were treated with different concentrations of peptide dissolved in cell culture medium and continuously monitored for up to 100 h. The cell sensor impedance was expressed as an arbitrary unit named the cell index. The cell index was recorded every 5 minutes using a RTCA analyser. To eliminate variation between the wells, the cell index values were normalised to the value at the beginning of the treatment.

DENV2 = assay: Dose-response assay, viral RNA by one-step qRT-PCR; assay type: cell-based, Dengue virus serotype-2 (DENV2); details: HepG2 infected with DENV2, MOI 2, peptide 0-80 μM added after infection, quadruplicate experiments, ± SD
Procedure: This assay was performed to evaluate the 50% effective concentration (EC50) of the Ltc 1 peptide against DENV2. HepG2 cells were grown in six-well microplates (1.5 × 10^6 cells/well) for 24 h in quadruplicate experiments. The cell culture media were removed and the cells were washed three times with PBS. Then, fresh medium containing the virus supernatant was added at MOI of 2, followed by incubation for 1 h with gentle shaking every 15 min. The viral residues were removed by washing with PBS, and serial dilutions of the Ltc 1 peptide (0, 2.5, 5, 10, 20, 40, 80 μM) were added. […] The cell supernatants were collected and stored at -80°C for viral load determination using viral RNA and were quantified using one step qReal time-PCR.
The DENV2 copy number was quantified in the culture supernatants using one-step quantitative real-time PCR. Known copies of the viral RNA were 10-fold serially diluted to generate a standard curve. The viral RNA was extracted using the QIAmp viral RNAmini kit (QIAGEN, Germany), and the qRT-PCR was performed using a SYBR Green Master Kit (Qiagen, Germany). Triplicate reactions were performed for each sample, and a no template control was included as a negative control. Absolute quantification was performed using an ABI7500 machine (Applied Biosystems, Foster City, CA). The results were analysed using Sequence Detection Software Version 1.3 (Applied Biosystems, Foster City, CA). The percentage of viral inhibition (%) was calculated as follows: 100 – (viral copy number of treated cells/viral copy number of untreated cells) × 100.

[2] = cited from earlier work
Excerpt: Natural antimicrobial peptides (AMPs) are produced in the majority of living organisms as protection against various pathogens, including viruses. […] Therefore, the objective of this study was to identify and characterise the inhibitory potential of the latarcin peptide (Ltc 1, […]) against dengue virus replication in human cells. Ltc 1 is one of approximately seven latarcin peptides, which are produced in the venom gland of Lachesana tarab ...

mammalian cells = details: cited from earlier work
[3] = test system: dengue protease NS2B-NS3pro; details: compared to the other standard serine protease inhibitors; cited from earlier work
Excerpt: Previous studies reported various inhibitors against dengue protease, including standard serine protease inhibitors, substrate based inhibitors, and non-substrate based inhibitors.

T1 sequence (P14340 1476-1660): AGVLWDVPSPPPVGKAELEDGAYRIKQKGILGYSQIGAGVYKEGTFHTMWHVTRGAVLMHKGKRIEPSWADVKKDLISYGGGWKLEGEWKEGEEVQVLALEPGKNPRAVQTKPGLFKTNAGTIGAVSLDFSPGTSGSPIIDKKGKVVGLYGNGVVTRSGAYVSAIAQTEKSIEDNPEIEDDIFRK
T1 sequence (P14340 1394-1440): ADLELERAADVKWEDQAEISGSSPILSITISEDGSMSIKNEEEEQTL

Substance | IC50 ([1]; 37°C) [µM] | IC50 ([1]; 40°C (high fever-like)) [µM] | cell viability (Vero cells; 25 μM peptide) [%] | CC50 (50% cytotoxic concentration) (Vero cells; 0-120 μM peptide, DMEM 2% FBS, 37°C, triplicate, ± SD) | effect on cell proliferation (HepG2 cells; 25 μM, 110 h, cell index similar to untreated control cells) | effect on cell proliferation (HepG2 cells; 50 μM, after 66 h of incubation, HepG2 cells) | maximal non-toxic dose (MNTD) (HepG2 cells; HepG2 cells, real-time cell index, concentrations 0-250 μM) [µM] | effect on cell proliferation (HepG2 cells; concentrations higher than 50 μM, all time-points) | EC50 (DENV2; 24 h) [µM] | EC50 (DENV2; 48 h) [µM] | EC50 (DENV2; 72 h) [µM] | haemolytic activity [2] | induction of cell apoptosis (mammalian cells) | inhibitory effect against the dengue protease [3]
SMWSGMWRRKLKKLRNALKKKLKGE [Ltc 1] | 12.7 ± 3.2 | 6.58 ± 4.1 | 80 | approximately 52.51 ± 3.6 μM | insignificant | significantly decreased | 25 | toxic to the cells | 8.3 ± 1.2 | 7.6 ± 2.7 | 6.8 ± 2.5 | moderate haemolytic activity | induces cellular changes that lead to cell apoptosis | 
aprotinin |  |  |  |  |  |  |  |  |  |  |  |  |  | picomolar levels
